Data taken from ChEMBL document CHEMBL1130657, “Synthesis of novel fluorinated coumarins: excellent UV-light excitable fluorescent dyes” (Bioorg Med Chem Lett, 1998).

Assay: Photostability, pKa was evaluated
Format: physicochemical

Structure (SMILES) | pKa
O=C(O)c1cc2ccc(O)cc2oc1=O | 7.5
Cc1c(CC(=O)O)c(=O)oc2c(F)c(O)c(F)cc12 | 4.7
Cc1cc(=O)oc2c(F)c(O)ccc12 | 6.4

More lines, now with the values ahead:

pKa | Structure (SMILES)
3.7 | O=C(O)c1cc2cc(F)c(O)c(F)c2oc1=O
3.8 | CCOC(=O)c1cc2cc(F)c(O)c(F)c2oc1=O
